Measured values: patent publication US20180008587A1, “THIOHYDANTOIN ANDROGEN RECEPTOR ANTAGONISTS FOR THE TREATMENT OF CANCER” (Jaressen Pharmaceutica NV, priority 2016, published 2018)
Changes are numbered by the printed parent chain.

Key:
AR H874Y = target: T1, AR H874Y (Homo sapiens, UniProt P10275, H875Y); assay: Luciferase transcriptional reporter assay, mutant AR, HepG2, antagonist mode; assay type: cell-based; conditions: HepG2, 90 pM R1881, 48 hours; * denotes incomplete inhibition (otherwise 100%); read-out: Antagonism; IC50, AR construct H874Y
T1 construct: expressed in transfected cells; host or cells: HepG2
T1 sequence (P10275 1-920 H875Y): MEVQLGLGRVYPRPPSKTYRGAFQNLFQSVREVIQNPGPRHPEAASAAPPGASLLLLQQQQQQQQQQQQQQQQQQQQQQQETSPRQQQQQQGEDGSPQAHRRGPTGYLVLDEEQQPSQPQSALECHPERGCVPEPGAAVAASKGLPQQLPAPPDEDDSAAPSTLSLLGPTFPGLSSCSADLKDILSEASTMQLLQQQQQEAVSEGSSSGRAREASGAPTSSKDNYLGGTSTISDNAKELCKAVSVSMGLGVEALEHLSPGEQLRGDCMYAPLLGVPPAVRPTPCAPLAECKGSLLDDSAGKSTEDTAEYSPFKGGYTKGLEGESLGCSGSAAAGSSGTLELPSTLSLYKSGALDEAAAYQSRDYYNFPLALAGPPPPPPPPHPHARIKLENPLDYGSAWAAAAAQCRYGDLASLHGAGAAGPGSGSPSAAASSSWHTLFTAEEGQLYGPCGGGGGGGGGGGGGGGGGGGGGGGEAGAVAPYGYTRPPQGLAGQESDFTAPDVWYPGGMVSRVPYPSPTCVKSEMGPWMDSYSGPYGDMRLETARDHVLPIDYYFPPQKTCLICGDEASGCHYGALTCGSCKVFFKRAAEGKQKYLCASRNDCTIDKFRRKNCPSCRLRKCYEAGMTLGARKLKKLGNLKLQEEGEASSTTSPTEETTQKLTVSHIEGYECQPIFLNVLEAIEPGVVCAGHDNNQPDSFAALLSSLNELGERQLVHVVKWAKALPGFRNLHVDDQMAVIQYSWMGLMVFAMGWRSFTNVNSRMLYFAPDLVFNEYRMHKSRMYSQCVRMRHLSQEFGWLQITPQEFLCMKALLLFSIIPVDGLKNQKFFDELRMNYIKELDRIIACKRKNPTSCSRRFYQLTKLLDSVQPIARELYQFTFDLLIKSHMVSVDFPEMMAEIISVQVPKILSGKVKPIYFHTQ
Procedure: (§1) HepG2 cells were maintained in EMEM supplemented with 10% FBS. One day before transfection, the media was changed to EMEM with 10% CSS. T-150 flasks were transiently transfected using 120 μL Lipofectamine 2000 (Life Technologies), 30 μg mutant cDNA (expression vector)—mutant cDNA tested were L701H, T877A, W741C and H874Y—and 40 μg 4×ARE-Luciferase (reporter vector) in OptiMEM and the flasks were incubated overnight. Cells were then trypsinized, counted and resuspended at 500,000 cells/mL. For agonist mode, the compounds of Formula (I) are serially diluted and 50 μL of the compound added per well. 50 μL of the cells are added to each well and incubated for 48 hours. For antagonist mode, a final concentration of 90 pM R1881 was added to the diluted compounds and incubated for 48 hours. The plates were then assayed using SteadyGlo and read on the Envision. Percent Stimulation and Inhibition is determined and analyzed using GraphPad Prism.
(§2) All values are calculated relative to the activity of R1881 induced androgen receptor activity (n≧3).

AR W741C = target: T2, AR W741C (Homo sapiens, UniProt P10275, W742C); assay: as above; assay type: cell-based; conditions: HepG2, 90 pM R1881, 48 hours; * denotes incomplete inhibition (otherwise 100%); read-out: Antagonism; IC50, AR construct W741C
T2 construct: expressed in transfected cells; host or cells: HepG2
T2 sequence (P10275 1-920 W742C): T1 sequence (P10275 1-920 H875Y) with W742C, Y875H
Procedure: as §1, §2

SMILES: N#Cc1ncc(N2C(=O)C3(CCC3)N(c3ccc(OC4CCNCC4)cc3)C2=S)cc1C(F)(F)F [Cpd 35, 5-[5-oxo-8-[4-(4-piperidyloxy)phenyl]-7-thioxo-6,8-diazaspiro[3.4]octan-6-yl]-3-(trifluoromethyl)pyridine-2-carbonitrile]
- IC50 (AR H874Y): 1.95 µM
- IC50 (AR W741C): 5.79 µM
